ChEMBL document CHEMBL4190350, “Synthesis, antimicrobial, antiquorum-sensing, antitumor and cytotoxic activities of new series of cyclopenta(hepta)[b]thiophene and fused cyclohepta[b]thiophene analogs” (Eur J Med Chem, 2017)
Values after ≈ are worked out from the molar mass of the structure shown.

Experiments:
Escherichia coli = test: Antimicrobial activity against Escherichia coli incubated for 24 hrs by disc diffusion assay; assay type: functional
HepG2 = test: Antitumor activity against human HepG2 cells assessed as inhibition of cell viability incubated for 48 hrs by MTT assay; assay type: functional, cell-based; settings: HepG2, 48 h
Candida albicans = test: Antimicrobial activity against Candida albicans incubated for 48 hrs by disc diffusion assay; assay type: functional
[1] = system: Chromobacterium violaceum; test: Inhibition of quorum sensing system in Chromobacterium violaceum ATCC 12472 assessed as inhibition of violacein production at 5 mg/mL incubated for 48 hrs
HT-29 = test: Antitumor activity against human HT-29 cells assessed as inhibition of cell viability incubated for 48 hrs by MTT assay; assay type: functional, cell-based; settings: HT-29, 48 h
Aspergillus fumigatus [2] = test: Antimicrobial activity against Aspergillus fumigatus incubated for 48 hrs by disc diffusion assay; assay type: functional
Bacillus cereus = test: Antimicrobial activity against Bacillus cereus incubated for 24 hrs by disc diffusion assay; assay type: functional
Staphylococcus aureus = test: Antimicrobial activity against Staphylococcus aureus incubated for 24 hrs by disc diffusion assay; assay type: functional
MCF7 = test: Antitumor activity against human MCF7 cells assessed as inhibition of cell viability incubated for 48 hrs by MTT assay; assay type: functional, cell-based; settings: MCF7, 48 h
Aspergillus fumigatus [3] = test: Antimicrobial activity against Aspergillus fumigatus incubated for 48 hrs by serial dilution method; assay type: functional
Ehrlich [4] = test: Antitumor activity against mouse EAC cells implanted in Swiss albino mouse assessed as increase in life span at 0.5 mg for 9 days relative to untreated control; assay type: functional
Ehrlich [5] = test: Antitumor activity against mouse EAC cells implanted in Swiss albino mouse assessed as tumor volume at 0.5 mg for 9 days (reference value: 9.85 ml); assay type: functional
Ehrlich [6] = test: Antitumor activity against mouse EAC cells implanted in Swiss albino mouse assessed as mean survival time at 0.5 mg for 9 days (reference value: 14.5 day); assay type: functional
Mus musculus [7] = test: Toxicity in mouse EAC cells implanted Swiss albino mouse assessed as WBC count at 0.5 mg for 9 days (reference value: 23.96 10^3/mm3); assay type: organism-based; settings: in vivo, 216 h
Mus musculus [8] = test: Toxicity in mouse EAC cells implanted Swiss albino mouse assessed as hemoglobin level at 0.5 mg for 9 days (reference value: 8.15 g/dl); assay type: organism-based; settings: in vivo, 216 h
Mus musculus [9] = test: Toxicity in mouse EAC cells implanted Swiss albino mouse assessed as RBC count at 0.5 mg for 9 days (reference value: 3.69 10^6/mm3); assay type: organism-based; settings: in vivo, 216 h
[10] = Binding affinity to DNA (unknown origin) assessed as reduction in absorption maxima for methyl green/DNA complex incubated for 24 hrs by methyl green/DNA displacement assay

| Compound | diameter of the inhibition zone (DIZ) (Escherichia coli) [mm] | IC50 (HepG2) [µM] | diameter of the inhibition zone (DIZ) (Candida albicans) [mm] | INH [1] [mm] | IC50 (HT-29) [µM] | diameter of the inhibition zone (DIZ) (Aspergillus fumigatus [2]) [mm] | diameter of the inhibition zone (DIZ) (Bacillus cereus) [mm] | diameter of the inhibition zone (DIZ) (Staphylococcus aureus) [mm] | IC50 (MCF7) [µM] | MIC (Aspergillus fumigatus [3]) [µM] | ILS (Ehrlich [4]) [%] | Activity (Ehrlich [5]) [mL] | MST (Ehrlich [6]) [days] | Activity (Mus musculus [7]) [×10³ /mm3] | Activity (Mus musculus [8]) [g/dL] | Activity (Mus musculus [9]) [×10⁶ /mm3] | IC50 [10] [µM] |
| --- | --- | --- | --- | --- | --- | --- | --- | --- | --- | --- | --- | --- | --- | --- | --- | --- | --- |
| NNC(=O)c1c(NN=C2C(=O)NNC2=O)sc2c1CCCCC2 | <2 | 32.6 | <2 | 6 | 49.4 | <2 | <2 | <2 | 28.7 |  |  |  |  |  |  |  |  |
| CCOC(=O)c1c(N/N=C2\C(=O)NN=C2C)sc2c1CCC2 | <2 | 92.4 | 8 | < 2 | 84.5 | <2 | <2 | 7 | 57.2 |  |  |  |  |  |  |  |  |
| NNC(=O)c1c(N/N=C2/C(=O)NN=C2N)sc2c1CCCCC2 | <2 | 35.4 | <2 | 9 | 41.2 | <2 | <2 | <2 | 18.3 |  |  |  |  |  |  |  |  |
| CCOC(=O)c1c(N/N=C2\C(=O)NN=C2C)sc2c1CCCCC2 | <2 | 42.3 | 10 | < 2 | 88.1 | <2 | <2 | <2 | 52.4 |  |  |  |  |  |  |  |  |
| N#Cc1c(O)c2c3c(sc2[nH]c1=O)CCCCC3 | 3 | 22.7 | <2 | < 2 | 27.3 | 8 | 3 | <2 | 19.1 |  |  |  |  |  |  |  |  |
| NNC(=O)c1c(NN=C2C(=O)NNC2=O)sc2c1CCC2 | <2 |  | <2 | 8 |  | 17 | <2 | <2 |  | 1010 (≈ 313 µg/mL) |  |  |  |  |  |  |  |
| O=c1[nH]cc(F)c(=O)[nH]1 [FLUOROURACIL] |  | 6.9 |  |  | 4.6 |  |  |  | 5.7 |  | 237.9 | 1.6 | 49 | 8.86 | 12.96 | 5.21 |  |
| CCOC(=O)c1c(-n2cnnn2)sc2c1CCCCC2 | 6 | > 100 | <2 | < 2 | > 100 | <2 | 9 | 3 | 62.5 |  |  |  |  |  |  |  |  |
| COc1cccc2c1C(=O)c1c(O)c3c(c(O)c1C2=O)C[C@@](O)(C(=O)CO)C[C@@H]3O[C@H]1C[C@H](N)[C@H](O)[C@H](C)O1 [DOXORUBICIN] |  |  |  |  |  |  |  |  |  |  |  |  |  |  |  |  | 32.4 |
| CCOC(=O)/C(C#N)=N/Nc1sc2c(c1C(=O)OCC)CCC2 | 7 | 58.2 | <2 | 8 | 72.1 | <2 | 7 | 11 | 45.5 |  |  |  |  |  |  |  |  |
| CC(=O)c1c(O)c2c3c(sc2[nH]c1=O)CCCCC3 | 12 | 54.9 | 9 | 5 | 47.2 | 24 | 9 | 8 | 24.9 | 563 (≈ 156 µg/mL) |  |  |  |  |  |  | 56.3 |
| CCOC(=O)/C(C#N)=N/Nc1sc2c(c1C(=O)OCC)CCCCC2 | <2 | > 100 | 5 | 4 | 92.8 | <2 | 5 | 7 | 70.9 |  |  |  |  |  |  |  |  |
| CCOC(=O)c1c(N/N=C(\C(C)=O)C(=O)c2ccccc2)sc2c1CCCCC2 | <2 | 71.6 | 11 | 3 | 94.7 | 18 | <2 | <2 | 36.9 | 758 (≈ 313 µg/mL) |  |  |  |  |  |  |  |
| CCOC(=O)c1c(NC(=O)CC#N)sc2c1CCCCC2 | <2 | > 100 | 14 | 2 | > 100 | <2 | <2 | <2 | 60.4 |  |  |  |  |  |  |  |  |
| CC1=NNC(=O)/C1=N\Nc1sc2c(c1C(=O)NN)CCCCC2 | <2 | 81.7 | <2 | 5 | 66.7 | <2 | <2 | <2 | 41.2 |  |  |  |  |  |  |  |  |
| CCOC(=O)C(=NNc1sc2c(c1C(=O)OCC)CCC2)C(=O)OCC | 7 | > 100 | <2 | < 2 | > 100 | <2 | 5 | 9 | > 100 |  |  |  |  |  |  |  |  |
| CCOC(=O)c1c(NC(=O)CC(C)=O)sc2c1CCCCC2 | <2 | 89.7 | <2 | < 2 | > 100 | <2 | <2 | <2 | 62.8 |  |  |  |  |  |  |  |  |
| CCOC(=O)C(=NNc1sc2c(c1C(=O)OCC)CCCCC2)C(=O)OCC | <2 | 76.3 | <2 | < 2 | 86.8 | <2 | <2 | 5 | 54 |  |  |  |  |  |  |  |  |
| Oc1cc(O)c2c(c1)O[C@H](c1ccc(O)c(O)c1)[C@@H](O)C2 |  |  |  | 2 |  |  |  |  |  |  |  |  |  |  |  |  |  |
